Entries after “also recorded” stand apart in the source; their conditions may differ.
How the values were obtained:
Format in all cases: cell-based, human
iPSC-RPE = experiment: Testing different concentrations of AGN 193109 and endo-IWR-1 to reproduce macular (P1), central (P2) and peripheral (P3) cells
Procedure: FIG. 13. Testing different concentrations of AGN 193109 and endo-IWR-1 to reproduce macular (P1), central (P2) and peripheral (P3) cells. A range of concentrations of AGN 193109 and endo-IWR-1 were tested that could be used to reproduce macular, central and peripheral RPE populations (labeled P1, P2 and P3, respectively). Population 1 (P1, macular cells) can be reproduced with […] of AGN 193109. Population 3 (P3, peripheral) can be reproduced with 1 mM-4 mM of endo-IWR-1. A gradient of AGN 193109 and endo-IWR-1 could be used to replicate human RPE population 2 (P2, central)—central RPE cells. In one example, this can be reproduced with 25 nM-50 nM of AGN 193109 and 0.1 mM-0.5 mM of endo-IWR-1. Boxplots relative to DMSO, P1, P2 and P3 are plotted on the left side of the graph as a reference for cell size comparison. Five concentrations were tested for AGN 193109 and endo-IWR-1.

acid phosphatase = experiment: Acid phosphatase activity in lysates of treated RPE cells (p-nitrophenyl phosphate); conditions: compared with DMSO- or endo-IWR-1-treated cells
Procedure: Acid phosphatase has higher expression in the macula (Boulton et al., Br. J. Opthalm. 78:125-9, doi: 10.1136/bjo.78.2.125, 1994). This enzyme has an important role in photoreceptor outer segment digestion. The acid phosphatase activity was determined in cells treated with DMSO, AGN 193109 or endo-IWR-1. RPE cells were lysed in distilled water to extract the enzyme. The lysates were then incubated with p-nitrophenyl phosphate, a phosphatase substrate that turn yellow when dephosphorylated by acid phosphatase. The color of the solution was measured with a spectrophotometer to estimate the enzyme activity.

iPSC-RPE cells = experiment: Phagocytosis test with labelled bovine outer segments, flow cytometry; conditions: 4 hours incubation with outer segments; One-way ANOVA showed no difference
Procedure: iPSC-RPE cells were provided purified bovine outer segment (mostly rod photoreceptors) to phagocytose. The outer segments were labelled with a dye that fluoresce when the outer segments are phagocytosed. RPE cells were incubated for 4 hours with outer segments and then analyzed with flow cytometry to measure outer segment ingestion or put back in the incubator for 20 hours before performing flow cytometry to measure outer segment digestion.

| Structure (SMILES) | concentration that reproduces population 2 (P2, central) (iPSC-RPE; AGN 193109 combined with endo-IWR-1) | concentration used to reproduce P1 (macular) (iPSC-RPE; Table 6) | acid phosphatase activity (acid phosphatase) | concentration used to reproduce P3 (peripheral) (iPSC-RPE; Table 6) | concentration used to reproduce P2 (central) (iPSC-RPE; Table 6, ENDO-1-IWR combined with AGN 193109) | outer segment ingestion (iPSC-RPE cells) |
| --- | --- | --- | --- | --- | --- | --- |
| Cc1ccc(C2=CCC(C)(C)c3ccc(C#Cc4ccc(C(=O)O)cc4)cc32)cc1 [AGN 193109, 4-[2-[5,6-Dihydro-5,5-dimethyl-8-(4-methylphenyl)-2-naphthalenyl]ethynyl]-benzoic acid] | 25 to 50 nM | 0.1 to 0.2 µM | higher acid phosphatase activity than DMSO- or endo-IWR-1-treated cells; also recorded: higher acid phosphatase activity |  |  |  |
| O=C(Nc1cccc2cccnc12)c1ccc(N2C(=O)C3C4C=CC(C4)C3C2=O)cc1 (stereo not drawn) [ENDO-1-IWR, 4-(1,3,3a,4,7,7a-Hexahydro-1,3-dioxo-4,7-methano-2H-isoindol-2-yl)-N-8-quinolinyl-Benzamide] |  |  |  | 1 to 4 µM | 0.1 to 0.2 µM | ingest (peripheral cells) more outer segments |

Reference: patent US20240261474A1, “BIODEGRADABLE TISSUE SCAFFOLD WITH SECONDARY MATRIX TO HOST WEAKLY ADHERENT CELLS” (THE U.S.A., as represented by the Secretary, Department of …, priority 2021, published 2024)
